According to patent US6093805A, “Glycoside compounds and methods of synthesis” (The Regents of the University of Michigan, priority 1997, dated 2000):
≈ marks a conversion by molar mass, not a printed value. Structures can show the parent of a compound that is named as a salt.

Key:
[1] = Solubility in 14 mM phosphate buffered saline pH 7.4 at 23° C.; assay type: physicochemical; conditions: aqueous buffer, 14 mM PBS pH 7.4, OD at 250 nm of supernatant, read-out: maximum solubility
Protocol: The solubility of the two acetaminophen derivatives (Examples 9 and 10) in 14 mM phosphate buffered saline (PBS) pH 7.4 was determined and compared with the solubility of non-derivatized acetaminophen. It was determined that the two acetaminophen derivatives had much greater solubility than that of the non-derivatized acetaminophen. All work was performed at 23° C.
Method: The solubility of both derivatives was determined by continual addition, with agitation, of the derivatives to a known amount of buffer. When a significant precipitate was observed, the respective solutions were centrifuged and the optical density at 250 nm of the resulting clear supernatant was determined. From the optical density of the supernatant, the concentration was obtained by comparison with non-derivatized acetaminophen standard curves.

K-562 = assay: Tumor cell growth inhibition in K-562 cell culture (FIG. 8); assay type: cell-based; conditions: K-562 culture fluid; 1/10 (0.4 mg/mL), 1/80 (0.03 mg/mL), 1/320 (0.007 mg/mL); plot FIG. 8
[2] = tested on: cancer diseases of several phenotypes; conditions: cited from earlier work
[3] = tested on: cancer cells of representative phenotypes; conditions: cited from earlier work
[4] = in vivo; cited from earlier work
cancer cells = conditions: cited from earlier work

Structure (SMILES): CC(=O)Nc1ccc(O[C@@H]2C=C[C@H](O[C@H]3O[C@H](CO)[C@@H](O)[C@H](O)[C@H]3O)[C@@H](CO)O2)cc1 [Example 9, p-Acetoamidophenyl 4-O-(α-D-glucopyranosyl)-2,3-dideoxy-α-D-erythro-hex-2-enopyranoside]
- solubility [1]: 60 mg/mL (≈ 136 mM)

Structure (SMILES): CC(C)CCC[C@@H](C)[C@H]1CC[C@H]2[C@@H]3[C@@H](O)C=C4C[C@@H](O)CC[C@]4(C)[C@H]3CC[C@]12C [7β-hydroxycholesterol, 5-cholestene-3β,7β-diol]
- tumor cell growth inhibition (K-562): tumor cell growth inhibition
- side effects in treatment of cancer diseases ([2]; in vivo): free of side effects
- treatment of cancer diseases ([2]; several phenotypes): successfully employed
- effect on healthy cells [3]: not affecting healthy cells
- elimination of cancer cells ([3]; substantially non-toxic dosage): effective at substantially non-toxic dosage and capable of eliminating cancer cells of representative phenotypes

Structure (SMILES): CC(=O)Nc1ccc(O)cc1 [acetaminophen, 4-acetamidophenol]
- solubility [1]: 7 mg/mL (≈ 46.3 mM)

Structure (SMILES): CC(C)CCC[C@@H](C)[C@H]1CC[C@H]2[C@@H]3[C@@H](OC(=O)CCC(=O)O)C=C4C[C@@H](OC(=O)CCC(=O)O)CC[C@]4(C)[C@H]3CC[C@]12C [7β-OHC bishemisuccinate colamine salt]
- normalizing effects [4]: drive-enhancing (stimulating) activity as well as a tranquilizing activity
- inhibition of proliferative phase growth of cancer cells (cancer cells; clinical studies, low parenteral dosage): selectively inhibit the proliferative phase growth of cancer cells
- side effects (cancer cells; in vivo): without substantial side effects

Structure (SMILES): CC(=O)Nc1ccc(O[C@@H]2C=C[C@H](O[C@@H]3O[C@H](CO)[C@H](O)[C@H](O)[C@H]3O)[C@@H](CO)O2)cc1 [Example 10, p-Acetoamidophenyl 4-O-(β-D-galactopyranosyl)-2,3-dideoxy-O-D-erythro-hex-2-enopyranoside]
- solubility [1]: 55 mg/mL (≈ 125 mM)
